≈ marks a conversion by molar mass, not a printed value. Where “and” joins values, the source holds several entries; their conditions need not be identical. Equal values may be shown once.
Key:
[1] = Liver tissue distribution after single intragastric administration; conditions: 10 mg/kg single intragastric, ICR mice; for AUC(0-t) at 24 h: mouse, in vivo, po, 10 mg/kg, area under curve at 24 h post-dose
Experimental: The specific regimen was as follows: Before administration, the state of the formulation for administration was inspected, and the homogeneity of the formulation was ensured by vortexing, stirring, or shaking. The theoretical dose for each mouse was calculated according to the following formula. The actual dose for each ICR mouse and the collection time for plasma and tissue samples were required to be recorded in detail in corresponding tables. Theoretical administration volume (mL) = ((Dose(mg⋅kg^−1))/(Concentration of test solution (mg⋅((mL))^−1))) × Animal body weight (kg) [formula]
Plasma sample collection: At each designated time point, about 100 µL of blood was collected from the orbit, and the collected whole blood was placed in an EDTA-K2 anticoagulation tube, inverted several times to mix thoroughly, stored on wet ice, and centrifuged (at 1500 g to 1600 g) for 10 min within 30 min to separate the plasma. The resulting plasma sample was stored at -40 °C to -20 °C for biological sample analysis.
The specific procedures for liver tissue collection were as follows: Liver tissues were collected immediately after whole blood collection. The liver tissues were collected, washed with ice-cold normal saline, dehydrated, weighed, and homogenized in 20% methanol-water at a ratio of 1:5 (w/v). The collection time of tissues and the weight of homogenized tissues were required to be recorded in detail in corresponding tables.
The plasma and various tissue homogenates were stored in a refrigerator at -40 °C to -20 °C for sample analysis. After the experiment was completed, the mice were euthanized by carbon dioxide asphyxiation or cervical dislocation. After the analysis was completed, the samples were returned to the biological sample room, and transferred to an environment at -40 °C to -20 °C for storage according to SOP-SM-001.
The corresponding pharmacokinetic parameters of plasma and liver tissues were calculated using a non-compartmental model in Phoenix WinNonlin 8.0 or later versions, and the area under curve AUC0-t (AUC0-t, the area under the concentration-time curve at 24 h post-dose) was calculated. The liver/plasma drug distribution ratio (RL/P) was then calculated.

[2] = tested on: ISG15, ISG56, Mx1, and Oaslb; assay: Liver safety: qPCR of interferon-related genes in liver tissue; assay type: in vivo, C57BL/6J wild-type female mice
Experimental: (§1) C57BL/6J wild-type female mice (6 weeks old) were randomly grouped. After administration at different doses, whole blood and liver tissues of the mice were separately collected at 1 h, 2 h, and 4 h for detection of a plurality of parameters to evaluate the effect of the drugs on the liver.
(§2) Liver tissues and blood were collected at 1 h, 2 h, and 4 h after single dosing.
(§3) The supernatant was collected and stored (-20 °C); • (3) IFN-α, IP-10, IL-6, and TNF-α were detected using an ELISA kit. • (C) Remaining liver tissue-HE staining and pathological evaluation. • (D) 1/2 blood (whole blood)-liver function parameter detection: AST (aspartate aminotransferase), ALT (alanine aminotransferase/glutamate pyruvate transaminase), ALP (alkaline phosphatase), ALB (albumin), and GGT (γ-glutamyl transferase). • (E) 1/2 blood-serum preparation-reserve for ELISA.

[3] = in vitro; conditions: human, microsomes, pH 7.4
Experimental: The metabolic stability of the compounds in in vitro liver microsomes was evaluated. The procedures and steps were as follows: At 37 °C, 1 µM of the compounds was incubated in 1 mg/mL liver microsomes. The reaction system was a 0.1 M potassium phosphate buffer (pH 7.4) containing 3 mmol/L MgCl2 and 1 mmol/L NADPH. At the beginning of the reaction, the small molecules and the liver microsomes were pre-incubated at 37 °C for 10 min, and subsequently a cofactor NADPH was added to initiate the metabolic reaction. The reaction was quenched at 0 min, 5 min, 10 min, 20 min, 30 min, and 60 min using three volumes of ice-cold methanol containing an internal standard (200 nM labetalol). After incubation at room temperature for 10 min, the samples were centrifuged at 4000 rpm at 4 °C for 20 min, and the supernatants were collected, diluted with chromatography-grade purified water in a 1:1 ratio, and then subjected to quantitative analysis. […] After a 6-minute chromatographic separation on a C18 column (50 × 2.1 mm; 2.6 µm) under a gradient mobile phase of 0.1% formic acid in water, the peaks corresponding to specified ionic signals were detected. […] The detailed operation process was as follows: • 1) The compound working solution was added to all 96-well reaction plates (T0, T5, T10, T20, T30, and T60) at 10 µL/well, except the blank wells. • 2) The microsomal solution was added to all the reaction wells (T0, T5, T10, T20, T30, T60, and blank wells) at 80 µL/well. • 3) The plates were pre-incubated at 37 °C for 10 min. • 4) After pre-incubation, NADPH was added to each reaction plate at 10 µL/well to initiate the reaction. • 5) At the set end time point, a 4 °C methanol solution (containing an internal standard: 200 nM labetalol) was added to each reaction plate at 300 µL/well to quench the reaction. • 6) Each plate was sealed and shaken for 10 min. • 7) The mixture was shaken well and centrifuged at 4000 rpm at 4 °C for 20 min. • 8) 300 µL of the supernatant was collected, and HPLC-grade water was added at 300 µL/well. The mixture was well mixed and then subjected to LC-MS analysis.
The metabolic half-life (T1/2) and the metabolic clearance rate (CLint(mic)) (µL/min/mg) were calculated using a first-order kinetic equation.

[4] = tested on: IFN-α, IP-10, IL-6, and TNF-α; assay: Liver safety: cytokine ELISA in liver tissue; assay type: in vivo, C57BL/6J wild-type female mice
Experimental: as §1, §2, §3

[5] = target: hERG potassium channel (Homo sapiens, UniProt Q12809); assay: hERG whole-cell patch-clamp; assay type: cell-based; conditions: whole-cell patch-clamp; read-out: hERG (IC50)
Description: The rapidly activated potassium channel encoded by human ether-a-go-go-related gene (hERG) is an important ion channel involved in the formation of cardiac action potential phase 3 repolarization. Drug-induced blockade of hERG channels can lead to delayed cardiac repolarization, manifested as QT interval prolongation on the electrocardiogram, known as long QT syndrome. Drug-induced delayed ventricular repolarization may, under certain circumstances, trigger fatal arrhythmias-torsade de pointes-type ventricular tachycardia. In this study, the whole-cell patch-clamp technique (the standard method for hERG safety assessment) was employed to evaluate the inhibitory effects of the small-molecule compounds on the hERG potassium channel and to assess the risk of ventricular repolarization toxicity.

[6] = physchem; conditions: phosphate buffer, pH 7.4, aqueous buffer
[7] = 3/10/20 mpk i.g., livers collected 1 h, 2 h, 4 h post-dose
Experimental: as §1, §2, §3

[8] = Solubility in phosphate buffer at pH 7.4
[9] = tested on: hepatitis B virus (HBV); assay: Anti-hepatitis B virus activity in HBV-infected primary human hepatocytes; assay type: cell-based, HBV type B; conditions: HBV-infected PHHs
Experimental: The culture supernatant from one donor (donor 1) was selected to stimulate HBV-infected primary hepatocytes (PHHs), and interferon α and nucleoside analog entecavir (ETV) were selected as positive controls. The experimental procedures were as follows (FIG. 14a), and the detailed procedures were as follows: On day -1, cryopreserved PHHs were thawed and adjusted to a density of 6 × 10^5 cells/mL, and the PHHs were seeded into a 48-well plate at 0.22 mL/well.
On day 0, the PHHs were infected with HBV type B at 600 GE/cells.
On day 1, the culture medium was replaced with a fresh one, and reference compounds ETV and Peg-IFN-α2a (Pegasys-Roche) were added to the cells to treat the cells. The reference compounds ETV and Peg-IFN-α2a for the PHHs were each prepared at one concentration, with three replicate wells.
The PBMC supernatants were each prepared at 4 test concentrations, diluted at a ratio of 1:4, and then added to the cells. Three replicate wells were made for each test condition. The culture medium was replaced with a fresh culture medium containing the PBMC supernatants and the reference compounds on days 5, 7, 9, and 11. On day 13, the cell supernatants were collected and the cell viability was detected using CCK-8.
The content of HBV DNA in the supernatants was determined by qPCR according to the kit instructions. HBsAg and HBeAg levels in the supernatants were determined by ELISA.

Chain of hERG potassium channel (Q12809 whole entry): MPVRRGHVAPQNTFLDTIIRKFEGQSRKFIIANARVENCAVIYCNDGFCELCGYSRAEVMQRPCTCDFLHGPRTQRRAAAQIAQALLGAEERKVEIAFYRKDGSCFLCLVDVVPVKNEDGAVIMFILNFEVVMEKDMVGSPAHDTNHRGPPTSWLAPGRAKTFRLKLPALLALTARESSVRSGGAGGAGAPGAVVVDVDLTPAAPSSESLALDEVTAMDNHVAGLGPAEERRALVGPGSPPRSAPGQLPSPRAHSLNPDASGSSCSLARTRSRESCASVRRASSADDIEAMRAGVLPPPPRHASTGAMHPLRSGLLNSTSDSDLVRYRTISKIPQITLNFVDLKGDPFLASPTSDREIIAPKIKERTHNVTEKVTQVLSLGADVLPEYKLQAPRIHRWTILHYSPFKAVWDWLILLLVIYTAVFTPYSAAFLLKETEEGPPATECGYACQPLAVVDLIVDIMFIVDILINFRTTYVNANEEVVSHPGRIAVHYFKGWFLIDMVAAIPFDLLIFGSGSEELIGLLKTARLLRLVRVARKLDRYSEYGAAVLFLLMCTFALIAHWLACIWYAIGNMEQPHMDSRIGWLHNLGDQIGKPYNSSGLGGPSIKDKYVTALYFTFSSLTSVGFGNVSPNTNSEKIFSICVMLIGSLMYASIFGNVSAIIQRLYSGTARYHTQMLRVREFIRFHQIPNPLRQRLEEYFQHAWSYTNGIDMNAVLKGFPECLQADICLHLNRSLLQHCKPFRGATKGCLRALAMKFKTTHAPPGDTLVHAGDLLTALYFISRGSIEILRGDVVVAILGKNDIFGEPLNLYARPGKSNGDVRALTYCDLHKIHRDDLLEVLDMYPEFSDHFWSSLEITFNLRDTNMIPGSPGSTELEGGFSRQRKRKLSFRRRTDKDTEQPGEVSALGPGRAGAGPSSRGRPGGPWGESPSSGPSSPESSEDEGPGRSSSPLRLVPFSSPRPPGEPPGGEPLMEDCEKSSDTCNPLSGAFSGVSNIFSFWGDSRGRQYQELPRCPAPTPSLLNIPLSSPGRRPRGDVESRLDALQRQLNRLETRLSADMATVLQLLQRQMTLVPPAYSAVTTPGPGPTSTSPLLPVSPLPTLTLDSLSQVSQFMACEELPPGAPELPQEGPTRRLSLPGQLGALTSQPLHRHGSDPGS

COCCNc1nc(N)nc2ccc(Cc3ccc(CN4CCOCC4)cc3)nc12 [Compound II]
AUC0-t ratio (liver/plasma) [1]: 114 | liver/plasma drug distribution ratio [1]: 114 fold | Drug concentration ratio (liver/plasma) ([1]; 0.25h): 610 | Mean drug concentration (liver) ([1]; 0.25h): 30980 ng/g | Mean drug concentration (plasma) ([1]; 0.25h): 50.8 ng/mL | Drug concentration ratio (liver/plasma) ([1]; 1 h): 134 | Mean drug concentration (liver) ([1]; 1 h): 8780 ng/g | Mean drug concentration (plasma) ([1]; 1 h): 65.6 ng/mL | Drug concentration ratio (liver/plasma) ([1]; 4h): 71.3 | Mean drug concentration (liver) ([1]; 4h): 1990 ng/g | Mean drug concentration (plasma) ([1]; 4h): 27.9 ng/mL | Drug concentration ratio (liver/plasma) ([1]; 24h): 79.4 | Mean drug concentration (liver) ([1]; 24h): 327 ng/g | Mean drug concentration (plasma) ([1]; 24h): 4.12 ng/mL | AUC(0-t) at 24 h ([1]; AUC0-t (liver)): 58100 ng·h/mL | AUC(0-t) at 24 h ([1]; AUC0-t (plasma)): 510 ng·h/mL | relative expression levels of ISG15, ISG56, Mx1, and oas1b ([2]; 3/10/20 mpk i.g. single dose, 1 h to 4 h): increased over time, and peaked at 4 h | mRNA expression level of interferon-related genes ([2]; dose of 3 mpk (pharmacodynamic dose)): significantly induced an increase | half-life at 1 µM [3]: 35.1 min | microsomal CLint at 1 µM [3]: 39.5 µL/min/mg | expression levels of IL-6, TNF-α, IFN-α, and IP-10 ([4]; 3/10/20 mpk groups i.g. single dose, 1 h, 2 h, 4 h): all peaked at 2 h, and decreased at 4 h | IP-10 (CXCL-10) secretion ([4]; i.g. single dose): significantly induced | IC50 [5]: 4.3 µM and > 10 µM | solubility [6]: 1010 µM (≈ 413 µg/mL) | Liver HE staining [7]: did not cause apparent pathological damage to the liver tissues | solubility improvement compared with N01(D18) [8]: about 10 fold | activity for inhibiting HBV DNA compared with Peg-IFN-α2a (100 IU/mL) ([9]; PBMC supernatant (donor 1)): comparable | activity for reducing hepatitis B surface antigen compared with Peg-IFN-α2a (100 IU/mL) ([9]; PBMC supernatant (donor 1)): slightly stronger | anti-HBV activity compared with GS-9688 ([9]; PBMC supernatant (donor 1)): significantly stronger | levels of surface antigens HBeAg and HBsAg ([9]; agonist-treated PBMC supernatant (donor 1) or reference compound, supernatant ELISA day 13): significantly reduced | level of HBV DNA ([9]; agonist-treated PBMC supernatant (donor 1) or reference compound, supernatant qPCR day 13): significantly reduced

— patent EP4732839A1, “USE OF COMPOUND IN TREATMENT OF LIVER DISEASES” (priority 2023, dated 2025)
